The test system of data set [1] is serotonin (shaking of the head induced by 5-hydroxy-tryptophan). Kind of data set: Central antiserotonin activity: Head-twitch induced by 5-hydroxy-tryptophan. Type of data set: in vivo, mice. To be noted: for ED50: Mus musculus, mice, oral, read-out: Antiserotonin activity Head-twitch AD 50; for central antiserotonin activity (in words): given orally to mice. From the text: The analgesic activities have been investigated with respect to abdominal spasms caused in mice by the intraperitoneal injection of 2-phenyl-1,4-benzoquinone according to E. Siegmund, E. Cadmus and G. Lu, Proc. Soc. exp. […] The central antiserotonin properties have been determined by the "Head-twitch" technique in mice according to S. J. Corne, R. W. Pickering and B. T. Warner, Brit. […] In this test, the antiserotonin products inhibit the sudden shaking of the head induced in mice by 5-hydroxy-tryptophan, the biological precursor of serotonin.

Data set [2] has as its system isolated duodenum of rabbit, contractions caused by acetylcholine. The data set is described as follows: Spasmolytic activity, neurotrope versus acetylcholine, isolated duodenum (Magnus). The text has this: (§1) The spasmolytic activities are known by means of the technique of R. Magnus (Arch. Ges. Physiol., 1904, 102, 123) on the isolated duodenum of rabbits. The spasmolytic neurotropes inhibit the contractions of the organ caused by acetylcholine, while the musculotropes prevent the spasms induced by barium chloride. The EC 50 expressed in mg/litre are collected in the following Table where EC denotes "Effective concentration".

Data set [3] can be described thus: Acute toxicity in mice, intravenous and oral (LD50). The settings on record: mouse, in vivo. Type of data set: in vivo. From the text:
The acute toxicities of the compounds according to the invention have been determined CD 1 mice (Charles RIVER) by intravenous and oral methods. The LD50 calculated by the quantal cumulative method of J. J. Reed and H. Muench (Amer. J. Hyg. 1938, 27, 493) are collected in the following Table: […]

The test system of data set [4] is abdominal spasms caused in mice by 2-phenyl-1,4-benzoquinone. The data set is described as follows: Analgesic activity: abdominal spasms caused by intraperitoneal 2-phenyl-1,4-benzoquinone (P.B.Q.). It is filed as in vivo. The settings on record: for ED50: Mus musculus, mice, oral, read-out: Analgesic activity P.B.Q. AD 50; for analgesic activity (in words): given orally to mice. The text has this:
The analgesic activities have been investigated with respect to abdominal spasms caused in mice by the intraperitoneal injection of 2-phenyl-1,4-benzoquinone according to E. Siegmund, E. Cadmus and G. Lu, Proc. Soc. exp. Biol. Med., 1957, 95, 729-731. The central antiserotonin properties have been determined by the "Head-twitch" technique in mice according to S. J. Corne, R. W. Pickering and B. T. Warner, Brit. J. Pharmacol., 1963, 20, 106-120. In this test, the antiserotonin products inhibit the sudden shaking of the head induced in mice by 5-hydroxy-tryptophan, the biological precursor of serotonin.

Data set [5] deals with isolated duodenum of rabbit, spasms induced by barium chloride. The data set is described as follows: Spasmolytic activity, musculotrope versus BaCl2, isolated duodenum (Magnus).
Description: as §1

Data set [6] concerns isolated rabbit heart. Kind of data set: Coronaro-dilatatory activity, isolated heart (Langendorff modified by Anderson). To be noted: for coronaro-dilatatory activity (in words): isolated rabbit heart. From the text:
The technique of Langendorff, modified by F. E. Anderson, (J. Pharmacol. exp. Therap., 1948, 91, 135) using isolated rabbit heart permits the coronaro-dilatatory activity of the products to be studied. In this text, the cardiac perfusion liquid contains 0.5 UI/1 of posthypophysis. The results are expressed in the percentage variation of the coronary flow after affusion of the product to be tested, compared with the initial flow.

The test system of data set [7] is glycemia. Kind of data set: Hypoglycemiant activity, variation of glycemia after 4 days of daily oral treatment. Type of data set: in vivo, male CD rats (Charles RIVER). To be noted: rat. The method, then:
The hypoglycemiant properties have been studied on the male CD rats (Charles RIVER) weighing 200 to 250 g, in which the glycemia is controlled before treatment and then after 4 days of daily oral treatment. The seric glucose is determined by the method of W. S. Hoffmann (J. Biol. Chem., 1937, 120, 51). Groups of 10 rats are used and the hypoglycemiant activity is expressed by the percentage variation of the average glycemia of the treated animals with respect to that of the controls. If it is necessary, the statistical significance of the difference is determined by the test of the coefficient "t" of Student.

Setting [8] is: intravenous, read-out: Acute toxicity to mice LD 50, intravenous.
The mark [9] stands for this setting: oral, read-out: Acute toxicity to mice LD 50, orally.

Like-named read-outs stand apart in the source and are kept apart here. Where only a bound is given, the exact number is not on record here.

For the compound `CCN(CC)CCNc1nc(N(C)c2ccccc2)nc(Cl)c1SC` [Example 2, 2-N-methyl-N-phenylamino-4-(2'-diethylamino)-ethylamino-5-methylthio-6-chloro-pyrimidine], the values for the ED50 in data set [1] and in data set [4] were 95 mg/kg and greater than 100 mg/kg, respectively. Moreover, the “central antiserotonin activity (in words)” value in data set [1] is “central antiserotonine”. Further, in data set [2], the “Spasmolytic activity EC 50, neurotrope versus acetylcholine” value was 1.50 mg/L. In addition, the LD50 in data set [3] (setting [8]) stood at 43 mg/kg; in data set [3] (setting [9]) it was 225 mg/kg. The “Spasmolytic activity EC 50, musculotrope versus BaCl2” value in data set [5] is 0.80 mg/L. For the same compound, the “Increase of the coronary flow” value in data set [6] (dose 0.01 mg) is reported as 56%; in data set [6] (dose 0.03 mg), 58%; in data set [6] (dose 0.10 mg) it was 64%; in data set [6] (dose 0.30 mg), 91%. Besides, the “coronaro-dilatatory activity (in words)” value in data set [6] is “interesting coronaro-dilatatory activities”.

`CCN(CC)CCNc1nc(N(CC)CC)nc(Cl)c1SC` [Example 3, 2-diethylamino-4-(2'-diethylamino)-ethyl-amino-5-methylthio-6-chloro-pyrimidine]: the ED50 in data set [1] was 35 mg/kg; in data set [4] it was greater than 100 mg/kg. Moreover, the “central antiserotonin activity (in words)” value in data set [1] is reported as “central antiserotonine”. Moreover, in data set [2], the “Spasmolytic activity EC 50, neurotrope versus acetylcholine” value is 1.30 mg/L. Further, the LD50 in data set [3] (setting [8]) worked out at 64 mg/kg; in data set [3] (setting [9]), 225 mg/kg. Moreover, in data set [5], the “Spasmolytic activity EC 50, musculotrope versus BaCl2” value was 0.30 mg/L.

As to `CCCN(CCC)c1nc(Cl)c(SC)c(NCCN(CC)CC)n1` [Example 5, 2-dipropylamino-4-(2'-diethylamino)-ethylamino-5-methylthio-6-chloro-pyrimidine], the ED50 in data set [1] is 100 mg/kg; in data set [4], greater than 300 mg/kg. In addition, the “hypoglycemiant properties (in words)” value in data set [7] is given as “strong hypoglycemiant properties”. In data set [2], the “Spasmolytic activity EC 50, neurotrope versus acetylcholine” value amounted to 1.00 mg/L. The LD50 in data set [3] (setting [9]) came to 800 mg/kg. For the same compound, the “Spasmolytic activity EC 50, musculotrope versus BaCl2” value in data set [5] was determined as 0.90 mg/L.

For `CCN(CC)CCNc1nc(N(C)c2ccc(Cl)cc2)nc(Cl)c1SC` [Example 6, 2-N-methyl-2-N-(4-chloro-phenyl)amino-4-(2'-diethylamino)-ethylamino-5-methylthio-6-chloro-pyrimidine], in data set [1], the ED50 came to 65 mg/kg and the “central antiserotonin activity (in words)” value is “central antiserotonine”. The “hypoglycemiant properties (in words)” value in data set [7] is “strong hypoglycemiant properties”. Further, the LD50 in data set [3] (setting [9]) stood at 610 mg/kg.

`CSc1c(Cl)nc(N(C)c2ccccc2)nc1NCCN(C)C` [Example 7, 2-N-methyl-N-phenyl-amino-4-(2'-dimethyl-amino)-ethylamino-5-methylthio-6-chloro-pyrimidine]: the “Spasmolytic activity EC 50, neurotrope versus acetylcholine” value in data set [2] amounted to 1.20 mg/L. The LD50 in data set [3] (setting [8]) worked out at 80 mg/kg; in data set [3] (setting [9]), 200 mg/kg. The ED50 in data set [4] is 60 mg/kg. Further, the “analgesic activity (in words)” value in data set [4] is listed as “marked analgesic activity”. In data set [5], the “Spasmolytic activity EC 50, musculotrope versus BaCl2” value was 0.16 mg/L. The “Increase of the coronary flow” value is listed as 38% in data set [6] (dose 0.003 mg), 40% in data set [6] (dose 0.01 mg), 37% in data set [6] (dose 0.03 mg) and 77% in data set [6] (dose 0.10 mg). Moreover, in data set [6], the “coronaro-dilatatory activity (in words)” value is reported as “interesting coronaro-dilatatory activities”.

For `CSc1c(Cl)nc(N(C)c2ccccc2)nc1NCCN(C(C)C)C(C)C` [Example 12, 2-N-methyl-N-phenylamino-4-(2'-di-isopropyl-amino)-ethylamino-5-methylthio-6-chloro-pyrimidine], in data set [7], the “hypoglycemiant properties (in words)” value is recorded as “strong hypoglycemiant properties”. The LD50 in data set [3] (setting [9]) turned out to be 600 mg/kg. Moreover, the ED50 in data set [4] was determined as 100 mg/kg.

On to `CSc1c(Cl)nc(N2CCCCC2)nc1NCCN(C(C)C)C(C)C` [Example 13, 2-piperidino-4-(2'-diisopropylamino)-ethylamino-5-methylthio-6-chloro-pyrimidine], for which the ED50 in data set [1] is 185 mg/kg. In data set [7], the “hypoglycemiant properties (in words)” value is recorded as “strong hypoglycemiant properties”. The LD50 in data set [3] (setting [9]) was greater than 900 mg/kg.

For `CCN(CC)c1nc(Cl)c(SC)c(NCCN(C(C)C)C(C)C)n1` [Example 16, 2-diethylamino-4-(2'-diisopropylamino)-ethylamino-5-methylthio-6-chloro-pyrimidine], in data set [1], the ED50 was 90 mg/kg and the “central antiserotonin activity (in words)” value is “central antiserotonine”. For the same compound, the LD50 in data set [3] (setting [9]) was determined as 600 mg/kg. In addition, in data set [4], the ED50 was determined as 70 mg/kg and the “analgesic activity (in words)” value was “marked analgesic activity”. Further, in data set [5], the “Spasmolytic activity EC 50, musculotrope versus BaCl2” value is 0.30 mg/L. Also, the “Increase of the coronary flow” value in data set [6] (dose 0.003 mg) was determined as 16%. Moreover, the “Increase of the coronary flow” value in data set [6] (dose 0.01 mg) was 52%. Also, the “coronaro-dilatatory activity (in words)” value in data set [6] is given as “interesting coronaro-dilatatory activities”.

As to `CSc1c(Cl)nc(N(C)c2cccc(C(F)(F)F)c2)nc1NCCN(C(C)C)C(C)C` [Example 17, 2-N-methyl-N(3-trifluoromethyl-phenyl)-amino-4-(2'-diisopropylamino)-ethylamino-5-methylthio-6-chloro-pyrimidine], the ED50 in data set [1] came out at 400 mg/kg. The “hypoglycemiant properties (in words)” value in data set [7] is “strong hypoglycemiant properties”. The LD50 in data set [3] (setting [9]) was greater than 900 mg/kg. The “Spasmolytic activity EC 50, musculotrope versus BaCl2” value in data set [5] is 0.50 mg/L.

In the case of `CSc1c(Cl)nc(N(C)c2ccc(Cl)cc2)nc1NCCN(C(C)C)C(C)C` [Example 18, 2-N-methyl-N(4-chloro-phenyl)amino-4-(2'-diisopropyl-amino)-ethylamino-5-methylthio-6-chloro-pyrimidine], the ED50 in data set [1] was 205 mg/kg; in data set [4], greater than 300 mg/kg. Moreover, in data set [7], the “hypoglycemiant properties (in words)” value is “strong hypoglycemiant properties”. Besides, the LD50 in data set [3] (setting [9]) is greater than 900 mg/kg.

Take `COc1nc(N(C)c2ccccc2)nc(NCCN(C(C)C)C(C)C)c1SC` [Example 24, 2-N-methyl-N,phenylamino-4-(2'-diisopropylamino)-ethylamino-5-methyl-thio-6-methoxy-pyrimidine]: the “hypoglycemiant properties (in words)” value in data set [7] is “strong hypoglycemiant properties”. Moreover, the “Spasmolytic activity EC 50, neurotrope versus acetylcholine” value in data set [2] was 0.12 mg/L. In data set [2], the “neurotropic spasmolytic activity (in words)” value is on record as “necessary to call attention”. Also, the LD50 was 22 mg/kg in data set [3] (setting [8]) and 600 mg/kg in data set [3] (setting [9]). The “Spasmolytic activity EC 50, musculotrope versus BaCl2” value in data set [5] was determined as 0.13 mg/L. The “Increase of the coronary flow” value in data set [6] (dose 0.003 mg) stood at 26%; in data set [6] (dose 0.01 mg), 32%; in data set [6] (dose 0.03 mg) it was 58%; in data set [6] (dose 0.10 mg), 67%. Moreover, the “coronaro-dilatatory activity (in words)” value in data set [6] is “interesting coronaro-dilatatory activities”.

`COc1nc(N(C)Cc2ccccc2)nc(NCCN(C(C)C)C(C)C)c1SC` [Example 27, 2-N-methyl-N-benzyl-amino-4-(2'-diiso-propyl-amino)-ethylamino-5-methyl-thio-6-methoxy-pyrimidine]: in data set [3] (setting [8]), the LD50 came out at 18.5 mg/kg. Further, the LD50 in data set [3] (setting [9]) is 600 mg/kg. Further, in data set [4], the ED50 is 95 mg/kg and the “analgesic activity (in words)” value is “marked analgesic activity”. In data set [5], the “Spasmolytic activity EC 50, musculotrope versus BaCl2” value was 0.08 mg/L; the “musculotropic EC 50” value is on record as “less than 0.1 mg/liter”; the “musculotropic spasmolytic activity (in words)” value was “quite remarkable activities”.

These data come from patent US3968214A, “5-Methylthio-pyrimidine vasodilators” (Produits Chimiques Ugine Kuhlmann, priority 1973, dated 1976).
